Experimental data reported in PMC7969469 (Cancer research, 2021).

Tested on: invadopodia formation
Experiment: Invadopodia formation with ROCK inhibitor
Format: cell-based
Conditions: ROCK inhibition, Supplementary Figure S6C

In the case of O=S(=O)(c1cccc2cnccc12)N1CCCNCC1 [Fasudil], the “effect on invadopodia formation” value is reported as “affected neither”.
